The text below walks through data of PubChem BioAssay (NCI).

Among the test systems are DMS 114 small cell lung; KM20L2 colon; LXFL 529 NSCLC; SNB-78 CNS; HS 578T breast; MDA-MB-231 breast; MDA-MB-435; NCI/ADR-RES ovarian; PC-3 prostate.
Holding throughout (test): NCI-60 cell line screen, 48 h

Where “and” joins values, the source holds several entries; their conditions need not be identical. Equal entries are not always repeated.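 Five compound concentrations were applied to cells in 96-well plates for 48 hours; endpoints were derived by simple linear interpolation of the resulting dose-response curve. At the GI50, growth is halved. TGI is the concentration that stops growth completely.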

On to `CCOC(=O)/C(O)=C/c1cc(OC)cc(=O)o1`, for which the TGI with DMS 114 small cell lung, in the experiment with KM20L2 colon, in the experiment on LXFL 529 NSCLC and in the experiment on SNB-78 CNS was greater than 100 µM each time.
In the case of `Cc1ccc(-c2cc(-c3ccco3)c(C#N)c(=O)[nH]2)cc1`, the TGI in the experiment with KM20L2 colon, with LXFL 529 NSCLC and with SNB-78 CNS was greater than 100 µM in each case.
For `COc1ccc(Nc2ncc(Br)c(NCCCNC(=O)C3CCC3)n2)cc1`, the GI50 in the experiment with HS 578T breast is 3.23 µM; in the experiment with MDA-MB-231 breast, 5.06 µM; in the experiment on MDA-MB-435, 36.1 µM; in the experiment with NCI/ADR-RES ovarian, 19 µM; in the experiment with PC-3 prostate, 14.5 µM. For the same compound, the TGI in the experiment with HS 578T breast was 9.2 µM; with MDA-MB-231 breast it was 60.3 µM; in the experiment on MDA-MB-435, greater than 100 µM; in the experiment on NCI/ADR-RES ovarian it was 80.5 µM; in the experiment on PC-3 prostate, greater than 100 µM.
For `O=C(O)C1C2CCC(O2)C1C(=O)N1CCCCC1` (stereo not drawn), the TGI with DMS 114 small cell lung turned out to be 5.06 µM; in the experiment on KM20L2 colon, 13.1 µM; with LXFL 529 NSCLC, 16.9 µM; in the experiment on SNB-78 CNS, 38.3 µM.
Consider `Cc1c(S(C)(=O)=O)c(-c2cc(F)cc(N3CCN(c4ccc(NS(=O)(=O)c5ccc(N[C@H](CCN6CCC(C(=O)OCCCP(=O)(O)O)CC6)CSc6ccccc6)c(S(=O)(=O)C(F)(F)F)c5)cc4)CC3)c2)c(-c2ccc(Cl)cc2)n1C(C)C`, for which the GI50 in the experiment with HS 578T breast is greater than 100 µM; in the experiment on MDA-MB-231 breast, 3.13 µM; with MDA-MB-435, greater than 100 µM; in the experiment with NCI/ADR-RES ovarian, greater than 100 µM; in the experiment on PC-3 prostate, greater than 100 µM. For the same compound, the TGI was greater than 100 µM in the experiment with HS 578T breast; 28 µM in the experiment on MDA-MB-231 breast; greater than 100 µM in the experiment with MDA-MB-435; greater than 100 µM with NCI/ADR-RES ovarian; greater than 100 µM in the experiment on PC-3 prostate.
Regarding `COc1ccc2c(c1)C(=O)c1c-2n(CCCN=[N+]=[N-])c(=O)c2cc(N(C)C)ccc12`, the GI50 in the experiment on HS 578T breast was 37.5 µM; in the experiment with MDA-MB-231 breast it was greater than 100 µM; in the experiment with MDA-MB-435, greater than 100 µM; in the experiment with NCI/ADR-RES ovarian it was greater than 100 µM; in the experiment on PC-3 prostate, greater than 100 µM. The TGI with HS 578T breast, with MDA-MB-231 breast, with MDA-MB-435, in the experiment on NCI/ADR-RES ovarian and with PC-3 prostate was greater than 100 µM in each case.
For the compound `CCc1n(Cc2ccc3ccccc3n2)cc[n+]1Cc1ccc2ccccc2n1`, the GI50 in the experiment with HS 578T breast is 1.88 µM; in the experiment on MDA-MB-231 breast it was 0.441 µM; in the experiment with MDA-MB-435 it was 0.141 µM; in the experiment with NCI/ADR-RES ovarian, greater than 100 µM; with PC-3 prostate, 0.163 µM. Also, the TGI with HS 578T breast is 26.1 µM; in the experiment on MDA-MB-231 breast, 4.16 µM; in the experiment on MDA-MB-435, 10.3 µM; in the experiment with NCI/ADR-RES ovarian it was greater than 100 µM; in the experiment on PC-3 prostate, 10.7 µM.
In the case of `O=Nc1c(-c2c(O)[nH]c3ccc([N+](=O)[O-])cc23)[nH]c2ccc(O)cc12`, the GI50 in the experiment with HS 578T breast is 0.345 µM; in the experiment on MDA-MB-231 breast, 0.5 µM; in the experiment with MDA-MB-435 it was 0.406 µM; in the experiment on NCI/ADR-RES ovarian, 1.44 µM; with PC-3 prostate it was 0.394 µM. For the same compound, the TGI in the experiment with HS 578T breast is greater than 100 µM; in the experiment with MDA-MB-231 breast, greater than 52.7 µM; in the experiment on MDA-MB-435 it was greater than 57.8 µM; in the experiment on NCI/ADR-RES ovarian, greater than 100 µM; in the experiment on PC-3 prostate, greater than 100 µM.
On to `CCn1c(C(=O)N(C2CC2)C2CC2)cc2c3c(ncn3C)c(Nc3cc(C)n(C)n3)nc21`, for which the GI50 in the experiment with HS 578T breast was 3.63 µM; in the experiment on MDA-MB-231 breast it was 35.5 µM; in the experiment on MDA-MB-435, greater than 100 µM; in the experiment with NCI/ADR-RES ovarian, greater than 100 µM; in the experiment on PC-3 prostate, greater than 100 µM. Moreover, the TGI in the experiment on HS 578T breast, with MDA-MB-231 breast, in the experiment with MDA-MB-435, with NCI/ADR-RES ovarian and with PC-3 prostate was greater than 100 µM each time.
Turning to `O=C1C(c2c[nH]c3ccccc23)=C(c2c[nH]c3ccccc23)C(=O)N1O`, the GI50 with HS 578T breast is greater than 19.7 µM; in the experiment with MDA-MB-231 breast, greater than 19.4 µM; in the experiment with MDA-MB-435 it was greater than 25 µM; in the experiment on NCI/ADR-RES ovarian, greater than 25 µM; in the experiment on PC-3 prostate, greater than 25 µM. Also, the TGI in the experiment with HS 578T breast, in the experiment with MDA-MB-231 breast, with MDA-MB-435, with NCI/ADR-RES ovarian and in the experiment on PC-3 prostate was greater than 25 µM in each case.
Regarding `Cc1ccc(S(=O)(=O)NCCNC2=CC(=O)c3nc4ccccc4c4ccnc2c34)cc1`, the GI50 was 27 µM in the experiment on HS 578T breast; 24 µM in the experiment with MDA-MB-231 breast; 17.7 µM in the experiment with MDA-MB-435; 17 µM with NCI/ADR-RES ovarian; 16 µM in the experiment with PC-3 prostate. In addition, the TGI with HS 578T breast turned out to be 79.9 µM; in the experiment with MDA-MB-231 breast, 66.1 µM; in the experiment with MDA-MB-435, 41.2 µM; in the experiment on NCI/ADR-RES ovarian, 55.4 µM; in the experiment on PC-3 prostate it was 49.8 µM.
As for `O=C([CH-]C(=O)c1ccccc1)c1ccccc1.O=C([CH-]C(=O)c1ccccc1)c1ccccc1.O=C([CH-]C(=O)c1ccccc1)c1ccccc1.[Nd+3].[OH3+]`, in the experiment with KM20L2 colon, the GI50 is 10.9 µM and the TGI was found to be 48 µM.
For the compound `C1C[OH+]CC[OH+]CCNCC[OH+]CC[OH+]CCN1.[Cl-].[Pt+4]`, in the experiment on KM20L2 colon, the GI50 is greater than 100 µM and the TGI is greater than 100 µM. Further, in the experiment on LXFL 529 NSCLC, the GI50 is 63.7 µM and the TGI is greater than 100 µM.
For the compound `COc1cc(/C=C\c2ccc(C)cc2)cc(OC)c1OC`, the TGI in the experiment with DMS 114 small cell lung is 20.8 µM; in the experiment on KM20L2 colon, 0.000535 µM; with LXFL 529 NSCLC it was 46.1 µM; with MDA-MB-435, 0.0672 µM; in the experiment on NCI/ADR-RES ovarian it was 0.111 µM and 0.158 µM; in the experiment with PC-3 prostate, greater than 100 µM. Moreover, the GI50 in the experiment with HS 578T breast was 0.0358 µM; in the experiment on PC-3 prostate it was 0.0173 µM.
In the case of `CC(=O)NNc1nc(C)c(C(=O)NNC(=O)C(=O)Nc2c(C)cccc2C)s1`, the TGI in the experiment with KM20L2 colon, in the experiment on LXFL 529 NSCLC and with SNB-78 CNS was greater than 100 µM throughout.
With `CCCC(=O)Nc1cc(C(=O)N2C[C@@H]3C[C@]34C2=CC(=O)c2[nH]cc(C)c24)n(COC)c1`, the GI50 with HS 578T breast was 4.31 µM; in the experiment with MDA-MB-231 breast, 2.94 µM; with MDA-MB-435, 3.19 µM; in the experiment with NCI/ADR-RES ovarian, 19.7 µM; in the experiment with PC-3 prostate, 2.86 µM. Moreover, the TGI with HS 578T breast was 38.2 µM and 27.1 µM; in the experiment with MDA-MB-231 breast it was 29.5 µM and 8.01 µM; in the experiment on MDA-MB-435, 19.2 µM and 12.5 µM; in the experiment with NCI/ADR-RES ovarian, 50 µM and 47.7 µM; in the experiment with PC-3 prostate it was 37.5 µM and 13.2 µM.
